Laboratory results as given in ChEMBL document CHEMBL4414665, “Dynamic Chirality in the Mechanism of Action of Allosteric CD36 Modulators of Macrophage-Driven Inflammation” (J Med Chem, 2019).
The source made the active and inactive calls. The rule behind the calls is not given here.

Legend:
[1] = molecular target: Platelet glycoprotein 4 (Mus musculus) (UniProt Q08857); assay: Modulation activity at CD36 in mouse RAW264.7 cells assessed as inhibition of TLR-2 agonist R-FSL-1-induced NO overproduction relative to control; assay type: cell-based; parameters: concentration or dose not given beside the values; details: concentration not given here
[2] = molecular target: Platelet glycoprotein 4 (Mus musculus) (UniProt Q08857); assay: Modulation activity at CD36 in mouse J774 cells assessed as promotion of cholesterol efflux at 100 nM pre-incubated for 17 hrs before apolipoprotein A-I addition for 4 hrs by fluorescent-labeled cholesterol kit based assay relative to control; assay type: cell-based
[3] = molecular target: Platelet glycoprotein 4 (Rattus norvegicus) (UniProt Q07969); assay: Displacement of photoactivated [125I]-Tyr-Bpa-Ala-hexarelin from CD36 in rat heart purified membranes
[4] = molecular target: Platelet glycoprotein 4 (Rattus norvegicus) (UniProt Q07969); assay: Displacement of photoactivated [125I]-Tyr-Bpa-Ala-hexarelin from CD36 in rat heart purified membranes relative to control; assay type: cell membranes

Platelet glycoprotein 4 (Mus musculus), sequence (Q08857 whole entry): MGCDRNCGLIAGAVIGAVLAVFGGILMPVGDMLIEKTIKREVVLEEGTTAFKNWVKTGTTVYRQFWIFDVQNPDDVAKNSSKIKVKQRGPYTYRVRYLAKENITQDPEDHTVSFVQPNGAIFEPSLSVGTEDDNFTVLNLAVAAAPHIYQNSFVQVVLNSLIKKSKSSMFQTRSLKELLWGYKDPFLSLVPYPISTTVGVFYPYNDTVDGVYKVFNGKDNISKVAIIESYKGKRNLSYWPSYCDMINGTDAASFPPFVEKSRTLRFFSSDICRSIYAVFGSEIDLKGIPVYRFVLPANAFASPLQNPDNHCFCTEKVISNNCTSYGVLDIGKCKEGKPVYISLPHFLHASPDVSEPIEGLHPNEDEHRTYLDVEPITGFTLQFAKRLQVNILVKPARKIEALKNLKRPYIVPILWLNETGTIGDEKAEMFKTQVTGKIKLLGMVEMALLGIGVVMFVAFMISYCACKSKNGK
Platelet glycoprotein 4 (Rattus norvegicus), sequence (Q07969 whole entry): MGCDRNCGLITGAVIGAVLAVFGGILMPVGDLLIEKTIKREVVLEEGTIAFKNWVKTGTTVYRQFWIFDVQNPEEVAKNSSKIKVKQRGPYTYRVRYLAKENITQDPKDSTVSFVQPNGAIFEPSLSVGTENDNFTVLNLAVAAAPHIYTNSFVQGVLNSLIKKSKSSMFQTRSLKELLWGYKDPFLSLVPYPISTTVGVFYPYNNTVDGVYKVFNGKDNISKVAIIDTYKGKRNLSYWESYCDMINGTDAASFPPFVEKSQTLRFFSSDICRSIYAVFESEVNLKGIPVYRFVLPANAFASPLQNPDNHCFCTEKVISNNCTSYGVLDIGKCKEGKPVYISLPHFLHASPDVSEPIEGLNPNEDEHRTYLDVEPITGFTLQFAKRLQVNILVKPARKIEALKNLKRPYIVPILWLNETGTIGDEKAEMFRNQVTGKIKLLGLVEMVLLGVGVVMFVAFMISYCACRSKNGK

Row | SMILES | inhibition [1] [%] | Activity [2] [%] | IC50 [3] [µM] | inhibition [4]
1 | C=CCN1CC#CC[C@H](NC(=O)[C@H](C)N)C(=O)N[C@H](Cc2c[nH]c3ccccc23)C(=O)N[C@@H](C)C(=O)N[C@@H](Cc2c[nH]c3ccccc23)C(=O)N[C@H](Cc2ccccc2)C(=O)N[C@H](C(N)=O)CCCC1 | 17 | 7 | 0.66 | –
2 | C=CCN1CC#CCN(NC(=O)[C@H](C)NC(C)=O)C(=O)N[C@H](Cc2c[nH]c3ccccc23)C(=O)N[C@@H](C)C(=O)N[C@@H](Cc2c[nH]c3ccccc23)C(=O)N[C@H](Cc2ccccc2)C(=O)N[C@H](C(N)=O)CCCC1 | 20 | 17 | 0.67 | –
3 | C=CCN1CC#CCN(NC(=O)[C@H](C)N)C(=O)N[C@H](Cc2c[nH]c3ccccc23)C(=O)N[C@@H](C)C(=O)N[C@@H](Cc2c[nH]c3ccccc23)C(=O)N[C@H](Cc2ccccc2)C(=O)N[C@H](C(N)=O)CCCC1 | 45 | 11 | 0.08 | –
4 | C=CCN1CC#CCN(NC(=O)[C@H](C)N)C(=O)N[C@@H](C)C(=O)N[C@@H](Cc2c[nH]c3ccccc23)C(=O)N[C@H](Cc2ccccc2)C(=O)N[C@H](C(N)=O)CCCC1 | 29 | 6 | 0.24 | –
5 | C=CCN1CC#CC[C@@H](NC(=O)[C@H](C)N)C(=O)N[C@H](Cc2c[nH]c3ccccc23)C(=O)N[C@@H](C)C(=O)N[C@@H](Cc2c[nH]c3ccccc23)C(=O)N[C@H](Cc2ccccc2)C(=O)N[C@H](C(N)=O)CCCC1 | 10 | 6 | 1.04 | –
6 | C=CCN1CC#CCN(N)C(=O)N[C@H](Cc2c[nH]c3ccccc23)C(=O)N[C@@H](C)C(=O)N[C@@H](Cc2c[nH]c3ccccc23)C(=O)N[C@H](Cc2ccccc2)C(=O)N[C@H](C(N)=O)CCCC1 | 18 | – | – | inactive
7 | C=CCN1CC#CC[C@H](NC(=O)[C@H](C)N)C(=O)N[C@@H](C)C(=O)N[C@@H](Cc2c[nH]c3ccccc23)C(=O)N[C@H](Cc2ccccc2)C(=O)N[C@H](C(N)=O)CCCC1 | 16 | 13 | 1.47 | –
8 | C=CCN1CC#CC[C@@H](NC(=O)[C@H](C)N)C(=O)N[C@@H](C)C(=O)N[C@@H](Cc2c[nH]c3ccccc23)C(=O)N[C@H](Cc2ccccc2)C(=O)N[C@H](C(N)=O)CCCC1 | 9 | 6 | 3.32 | –
